Counter-ions that a name gives are not always drawn.
Legend:
[1] = test system: tri-cultures of hepatocytes with 3T3-J2 fibroblasts and either liver sinusoidal endothelial cells (LSECs) or human umbilical vein endothelial cells (HUVECs); test: Drug toxicity screen: albumin secretions in hepatocyte/fibroblast/endothelia tri-cultures; details: azathioprine 100x and 50xCmax, dacarbazine 100xCmax, monocrotaline 100xCmax; 6 days, serum-free media; tri-cultures with LSECs or HUVECs compared with hepatocyte/3T3-J2 co-cultures
Procedure: Tissue culture polystyrene 24-well plates (Corning® Life Sciences) were coated for 2 hours with 25 μg/mL rat tail collagen-I (Corning® Life Sciences) and rinsed twice with sterile water. […] Cryopreserved PHHs after processing were seeded at a density of 6.67×10^5 cells/mL into collagen micropatterned wells (300 μL/well). After allowing 4-5 hours for cellular attachment and spreading onto collagen-coated islands, wells were washed 3× in DMEM base medium to remove unattached cells, leaving ˜3×10^4 PHHs per well in 24-well format (˜90 islands/well). Cultures in the co-planar arrangement were backfilled with fibronectin (2 μg/cm^2) before endothelia and 3T3-J2 fibroblasts were seeded 12-18 hours later and allowed to fill the remaining area surrounding the PHH islands. The hepatocyte:endothelial ratio was chosen to match the physiologic ratio of 5 hepatocytes (3×10^4 per well) to 1 endothelium (6×10^3 per well), and 3T3-J2 fibroblasts were added to bring the total stromal cell count to 9×10^4 cells per well. Cultures in the layered configuration were seeded with 9×10^4 3T3-J2 fibroblasts per well 12-18 hours after seeding PHHs to fill in remaining areas, overlaid with 250 μg/mL Matrigel® (Corning® Life Sciences), and then seeded with 6×10^3 endothelia per well the following day. […]
Hepatic morphological, functionality, and health assessments. The morphology of MPCCs was monitored using an EVOS® FL cell imaging system (Life Technologies) with standard 4×, 10×, and 20× phase contrast objectives. CYP3A4 activity in MPCCs was measured using the luminescence-based luciferin-IPA assay from Promega® (Madison, WI) per manufacturer's instructions. CYP2A6 was evaluated by treating the cultures with 50 μM coumarin for 1 hour and measuring the production of the metabolite 7-hydroxycoumarin. Albumin secretions were assessed with an enzyme-linked immunosorbent assay (ELISA) with horseradish peroxidase detection and 3,3′,5,5′-tetramethylbenzidine as the substrate. Urea production was measured via a colorimetric endpoint analysis with diacetylmonoxime, acid, and heat (Stanbio® Labs, Boerne, TX). […]

[2] = established in previous literature; basis for dosing up to 100xCmax; read-out: Cmax (the maximum plasma concentration); cited from earlier work
LSECs = details: known from the literature; cited from earlier work

C[C@H]1C(=O)O[C@@H]2CCN3CC=C(COC(=O)[C@](C)(O)[C@]1(C)O)[C@H]23 [monocrotaline]
Albumin secretions (drug toxicity), normalized to DMSO-only controls [1]: more responsive to drug toxicity | Cmax [2]: 10 µM | Toxicity specific to LSECs rather than hepatocytes (LSECs): toxicity specific to LSECs rather than hepatocytes

CN(C)/N=N/c1[nH]cnc1C(N)=O [dacarbazine]
Albumin secretions (drug toxicity), normalized to DMSO-only controls [1]: more responsive to drug toxicity | Cmax [2]: 43.9 µM | Toxicity specific to LSECs rather than hepatocytes (LSECs): toxicity specific to LSECs rather than hepatocytes

CCN(CC)CCOc1ccc(C(=C(Cl)c2ccccc2)c2ccccc2)cc1 [clomiphene citrate]
Toxicity specific to LSECs rather than hepatocytes (LSECs): toxicity specific to LSECs rather than hepatocytes

Cn1cnc([N+](=O)[O-])c1Sc1ncnc2nc[nH]c12 [azathioprine]
Albumin secretions (drug toxicity), normalized to DMSO-only controls [1]: more responsive to drug toxicity | Cmax [2]: 3.61 µM | Toxicity specific to LSECs rather than hepatocytes (LSECs): toxicity specific to LSECs rather than hepatocytes
